This is an account of results in patent publication US9751869B2, “LXR modulators” (BRISTOL-MYERS SQUIBB COMPANY, priority 2013, dated 2017).

The target in the test is T1, LXRβ (Homo sapiens, UniProt P55055).
T1 construct: Co-transfection expression plasmids, comprising full-length LXRα (pCMX-h LXRα or LXRβ (pCMX-hLXRβ)); expressed in transfected cells; host or cells: CV-1 African green monkey kidney cells, transient transfection with pCMX-hLXRβ
T1 sequence (P55055 1-460): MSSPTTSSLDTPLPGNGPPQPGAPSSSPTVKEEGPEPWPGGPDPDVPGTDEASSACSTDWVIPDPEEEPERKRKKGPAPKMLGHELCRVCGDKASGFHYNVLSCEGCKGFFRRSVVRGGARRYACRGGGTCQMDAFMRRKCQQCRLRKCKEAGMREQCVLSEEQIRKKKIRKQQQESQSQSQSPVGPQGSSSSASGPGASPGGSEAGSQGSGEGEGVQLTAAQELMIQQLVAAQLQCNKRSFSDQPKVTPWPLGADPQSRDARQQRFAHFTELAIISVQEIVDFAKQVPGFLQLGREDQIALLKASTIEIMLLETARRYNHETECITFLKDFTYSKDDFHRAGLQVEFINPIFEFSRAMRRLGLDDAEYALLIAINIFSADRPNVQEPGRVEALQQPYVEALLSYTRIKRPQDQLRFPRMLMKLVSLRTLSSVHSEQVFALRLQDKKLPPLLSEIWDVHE
T1 sequence (P19793 1-462 partner): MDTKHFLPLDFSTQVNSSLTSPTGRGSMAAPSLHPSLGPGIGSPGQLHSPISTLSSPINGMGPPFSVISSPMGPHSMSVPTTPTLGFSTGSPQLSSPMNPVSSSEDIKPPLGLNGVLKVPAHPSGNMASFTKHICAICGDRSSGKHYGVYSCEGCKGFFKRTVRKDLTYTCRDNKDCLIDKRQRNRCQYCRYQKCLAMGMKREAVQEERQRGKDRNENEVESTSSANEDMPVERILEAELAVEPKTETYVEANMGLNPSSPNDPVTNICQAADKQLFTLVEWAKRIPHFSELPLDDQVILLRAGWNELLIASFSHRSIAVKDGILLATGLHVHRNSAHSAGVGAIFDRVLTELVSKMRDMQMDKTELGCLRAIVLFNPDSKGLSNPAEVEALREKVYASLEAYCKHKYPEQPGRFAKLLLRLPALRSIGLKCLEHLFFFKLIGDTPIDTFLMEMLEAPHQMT
Nature of the test: LXR/LXRE co-transfection assay (luciferase reporter) in CV-1 cells, LXRβ. Particulars: for EC50: CV-1 cells transfected with pCMX-hLXRβ and LXREx1-Tk-Luciferase, 20 hours incubation, read-out: LXRbeta agonism EC50; for Emax: CV-1 cells, relative to maximum response of high control N-(3-((4-fluorophenyl)-(naphthalene-2-sulfonyl)amino)propyl)-2,2-dimethylpropionamide, read-out: LXRbeta % EFFICACY
The class given is cell-based. In a few lines: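 Luciferase read-out after 20 h compound treatment at 37 °C of CV-1 cells carrying transfected hLXRβ plus one-copy LXRE reporter, endogenous RXR partnering. Sigmoidal fit of 10-point half-log curves (4 wells each) gave EC50; % efficacy versus maximal response of the propionamide reference agonist.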

Turning to `Cc1nc(-c2ccc3c(c2)OC(F)(F)O3)c(-c2cc(-c3cccc(S(C)(=O)=O)c3)ccc2-c2cc(C(=O)NC(C)(C)C)nn2C)o1` [Example 113, N-(tert-butyl)-5-(3-(4-(2,2-difluorobenzo[d][1,3]dioxol-5-yl)-2-methyloxazol-5-yl)-3′-(methylsulfonyl)-[1,1′-biphenyl]-4-yl)-1-methyl-1H-pyrazole-3-carboxamide], the EC50 came out at 344 nM and the Emax came to 37%.
For `Cn1nc(C(F)(F)CO)cc1-c1ccc(-c2cccc(S(C)(=O)=O)c2)cc1-n1nncc1-c1ccc(OC(F)(F)F)cc1` [Example 25, 2,2-difluoro-2-(1-methyl-5-(3′-(methylsulfonyl)-3-(5-(4-(trifluoromethoxy)phenyl)-1H-1,2,3-triazol-1-yl)-[1,1′-biphenyl]-4-yl)-1H-pyrazol-3-yl)ethanol] the same measures were 1020 nM and 78%.
The matching figures for `Cc1cc(C(F)(F)F)n(-c2ccc(-c3cc(F)c(CO)c(S(C)(=O)=O)c3)cc2-c2nc(C)oc2-c2ccc(OC(F)F)cc2)n1` [Example 391, (3′-(5-(4-(difluoromethoxy)phenyl)-2-methyloxazol-4-yl)-3-fluoro-4′-(3-methyl-5-(trifluoromethyl)-1H-pyrazol-1-yl)-5-(methylsulfonyl)biphenyl-4-yl)methanol]: 165 nM and 56%.
Turning to `Cc1nc(-c2ccc(OC(F)(F)F)cc2)c(-c2cc(-c3cccc(S(C)(=O)=O)c3)ccc2-n2ccc(C(=O)NCC(F)(F)F)n2)o1` [Example 371, 1-(3-(2-methyl-4-(4-(trifluoromethoxy)phenyl)oxazol-5-yl)-3′-(methylsulfonyl)-[1,1′-biphenyl]-4-yl)-N-(2,2,2-trifluoroethyl)-1H-pyrazole-3-carboxamide], the 50% effective concentration (EC50) was 119 nM and the Emax turned out to be 33%.
For `Cc1nc(-c2ccc3c(c2)OC(F)(F)O3)c(-c2cc(-c3cc(F)c(CO)c(S(C)(=O)=O)c3)ccc2-n2nc(C(F)(F)F)cc2C)o1` [Example 329, (3′-(4-(2,2-difluorobenzo[d][1,3]dioxol-5-yl)-2-methyloxazol-5-yl)-3-fluoro-4′-(5-methyl-3-(trifluoromethyl)-1H-pyrazol-1-yl)-5-(methylsulfonyl)biphenyl-4-yl)methanol] the same measures were 3 nM and 92%.
The matching figures for `Cc1cc(C(F)(F)F)nn1-c1ccc(-c2cccc(S(C)(=O)=O)c2)cc1-c1ocnc1-c1ccc(OC(F)(F)F)cc1` [Example 307, 5-{3′-(methylsulfonyl)-4-[5-methyl-3-(trifluoromethyl)-1H-pyrazol-1-yl]biphenyl-3-yl}-4-{4-[(trifluoromethyl)oxy]phenyl}-1,3-oxazole]: 91 nM and 98%.
The matching figures for `Cc1nc(-c2ccc(OC(F)(F)F)cc2)c(-c2cc(-c3cc(F)c(CO)c(S(C)(=O)=O)c3)ccc2-c2cc(C(F)(F)C(N)=O)nn2C)o1` [Example 70, 2,2-difluoro-2-(5-(3′-fluoro-4′-(hydroxymethyl)-3-(2-methyl-4-(4-(trifluoromethoxy)phenyl)oxazol-5-yl)-5′-(methylsulfonyl)biphenyl-4-yl)-1-methyl-1H-pyrazol-3-yl)acetamide]: 317 nM and 42%.
In the case of `Cc1nc(-c2ccc3c(c2)OC(F)(F)O3)c(-c2cc(-c3cccc(S(C)(=O)=O)c3)ccc2-c2cc(C(=O)NCC3CC3)nn2C)o1` [Example 109, N-(cyclopropylmethyl)-5-(3-(4-(2,2-difluorobenzo[d][1,3]dioxol-5-yl)-2-methyloxazol-5-yl)-3′-(methylsulfonyl)-[1,1′-biphenyl]-4-yl)-1-methyl-1H-pyrazole-3-carboxamide], the EC50 worked out at 356 nM and the Emax is 52%.
For `Cc1nc(-c2ccc3c(c2)OC(F)(F)O3)c(-c2cc(-c3cc(F)c(CO)c(S(C)(=O)=O)c3)ccc2-c2cc(C(C)(C)C(C)(C)O)nn2C)o1` [Example 66, 3-(5-(3-(4-(2,2-difluorobenzo[d][1,3]dioxol-5-yl)-2-methyloxazol-5-yl)-3′-fluoro-4′-(hydroxymethyl)-5′-(methylsulfonyl)biphenyl-4-yl)-1-methyl-1H-pyrazol-3-yl)-2,3-dimethylbutan-2-ol] the same measures were 27 nM and 27%.
For `Cc1nc(-c2ccc3c(c2)OC(F)(F)O3)c(-c2cc(-c3cc(F)c(CO)c(S(C)(=O)=O)c3)ccc2-c2cc(C(C)(F)F)nn2C)o1` [Example 95, (3′-(4-(2,2-difluorobenzo[d][1,3]dioxol-5-yl)-2-methyloxazol-5-yl)-4′-(3-(1,1-difluoroethyl)-1-methyl-1H-pyrazol-5-yl)-3-fluoro-5-(methylsulfonyl)biphenyl-4-yl)methanol] the same measures were 19 nM and 65%.
The matching figures for `Cc1nc(-c2ccc3c(c2)OC(F)(F)O3)c(-c2cc(-c3cccc(S(C)(=O)=O)c3)ccc2-n2ccc(C(C)(C)O)n2)o1` [Example 357, 2-(1-(3-(4-(2,2-difluorobenzo[d][1,3]dioxol-5-yl)-2-methyloxazol-5-yl)-3′-(methylsulfonyl)-[1,1′-biphenyl]-4-yl)-1H-pyrazol-3-yl)propan-2-ol]: 392 nM and 41%.
`Cc1cc(C(F)(F)F)nn1-c1ccc(-c2cc(F)c(CO)c(S(C)(=O)=O)c2)cc1-n1nncc1-c1ccc(OC(F)(F)F)cc1` [Example 301, [3-fluoro-5-(methylsulfonyl)-4′-[5-methyl-3-(trifluoromethyl)-1H-pyrazol-1-yl]-3′-(5-{4-[(trifluoromethyl)oxy]phenyl}-1H-1,2,3-triazol-1-yl)biphenyl-4-yl]methanol]: the EC50 amounted to 32 nM and the Emax stood at 101%.
For `Cc1nc(-c2ccc3c(c2)OC(F)(F)O3)c(-c2cc(-c3cc(F)c(CO)c(S(C)(=O)=O)c3)ccc2-c2cc(C(F)(F)C(=O)NCC(F)(F)F)nn2C)o1` [Example 90, 2-(5-(3-(4-(2,2-difluorobenzo[d][1,3]dioxol-5-yl)-2-methyloxazol-5-yl)-3′-fluoro-4′-(hydroxymethyl)-5′-(methylsulfonyl)biphenyl-4-yl)-1-methyl-1H-pyrazol-3-yl)-2,2-difluoro-N-(2,2,2-trifluoroethyl)acetamide] the same measures were 58 nM and 34%.
The matching figures for `Cc1nc(-c2ccc(OC(F)(F)F)cc2)c(-c2cc(-c3cc(F)c(CO)c(S(C)(=O)=O)c3)ccc2-n2ccc(C(C)(C)C#N)n2)o1` [Example 377, 2-(1-(3′-fluoro-4′-(hydroxymethyl)-3-(2-methyl-4-(4-(trifluoromethoxy)phenyl)oxazol-5-yl)-5′-(methylsulfonyl)-[1,1′-biphenyl]-4-yl)-1H-pyrazol-3-yl)-2-methylpropanenitrile]: 28 nM and 23%.
For `Cc1cc(C(F)(F)F)n(-c2ccc(-c3cccc(S(C)(=O)=O)c3)cc2-c2nc(C)oc2-c2ccc(OC(F)F)cc2)n1` [Example 393, 5-(4-(difluoromethoxy)phenyl)-2-methyl-4-(4-(3-methyl-5-(trifluoromethyl)-1H-pyrazol-1-yl)-3′-(methylsulfonyl)biphenyl-3-yl)oxazole] the same measures were 744 nM and 40%.
Turning to `Cc1nc(-c2ccc(OC(F)(F)F)cc2)c(-c2cc(-c3cccc(C(C)(C)C(N)=O)c3)ccc2-n2ccc(COC(N)=O)n2)o1` [Example 376, (1-(3′-(1-amino-2-methyl-1-oxopropan-2-yl)-3-(2-methyl-4-(4-(trifluoromethoxy)phenyl)oxazol-5-yl)-[1,1′-biphenyl]-4-yl)-1H-pyrazol-3-yl)methyl carbamate], the half-maximal effective concentration (EC50) worked out at 1300 nM and the Emax was 53%.
For `Cc1nc(-c2ccc(OC(F)(F)F)cc2)c(-c2cc(-c3cccc(C(C)(C)C(N)=O)c3)ccc2-n2ccc(CC#N)n2)o1` [Example 365, 2-(4′-(3-(cyanomethyl)-1H-pyrazol-1-yl)-3′-(2-methyl-4-(4-(trifluoromethoxy)phenyl)oxazol-5-yl)-[1,1′-biphenyl]-3-yl)-2-methylpropanamide] the same measures were 424 nM and 76%.
